Test results as given in US5578639A, “PLA2 inhibitors and their use for inhibition of intestinal cholesterol absorption” (Warner-Lambert Company, priority 1995, dated 1996).
pIC50: −log10 of the molar value.

Tests used:
plasma lipids = assay: Plasma lipids in cholesterol-fed rats after oral PLA2 inhibitor; type: in vivo; settings: 100 mg/kg oral gavage, about 8 hours after start of feeding
Procedure: Ultimately, agents that inhibit the absorption of dietary cholesterol should suppress postprandial increases in plasma cholesterol. This was tested with several. PLA2 inhibitors in cholesterol-fed rats. The general protocol consisted of preparing a carboxymethyl cellulose/Tween 20 dispersion of the compound of interest and administering it at a dose of 100 mg/kg by oral gavage to rats previously trained to meal-feed. Immediately following administration of the inhibitor, the rats were fed a lipid-rich meal of chow supplemented with cholesterol, peanut oil, and cholic acid.

[1] = system: intestinal lipid absorption; assay: Lymph-fistula rats, effect of PLA2 inhibitors on lymphatic lipid output; type: in vivo, rat; settings: FIGS. 10 and 11
Excerpt: The intestinal lipid absorption pathway was isolated in the rat by inserting an infusion cannula in the proximal duodenum and implanting a second cannula in the mesenteric lymph vessel to intercept the lipoprotein output from the intestine. This lymph-fistula rat model was used to investigate the effect of pancreatic PLA2 inhibition, in situ, on intestinal absorption of infused lipid emulsions. In a typical experiment, cannulae were implanted the day before the experimental infusion. Following surgery, the animals were infused (2.5 mL/hr) with isotonic saline containing dextrose to flush the GI tract and obtain basal levels of lymphatic lipid output. On the day of the experiment, infusion of the dextrose recovery solution was continued for 1 hour to collect a basal lymph fraction. At the start of the next hour, the intake of the duodenal infusion cannula was switched to a lipid emulsion of isotonic saline containing safflower oil (59 mM), cholesterol (5.2 mM), PC (3.3 mM) and taurocholic acid (1.9 mM). One hour lymph fractions were collected until the end of the experiment. The lipid content (mass) of lymph fractions was determined by HPLC with a mass-sensitive, evaporative light-scattering detector. […]

porcine pancreatic PLA2 = biological target: T1, porcine pancreatic PLA2 (Sus scrofa, UniProt P00592); assay: Fluorescence assay of porcine pancreatic PLA2 inhibition in vitro; type: biochemical; settings: porcine pancreatic PLA2, in vitro; read-out: In Vitro IC50 (porc. panc. PLA2)
T1 construct: purchased Sigma Chemical Company (St. Louis, Mo.); host or cells: porcine pancreas
T1 sequence (P00592 23-146): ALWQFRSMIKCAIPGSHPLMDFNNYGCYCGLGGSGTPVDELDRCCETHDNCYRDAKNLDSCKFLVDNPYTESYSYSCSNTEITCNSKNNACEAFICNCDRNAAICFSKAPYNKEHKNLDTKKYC
Excerpt: The IC50 values for inhibition of porcine pancreatic PLA2, in vitro, are included for comparison with the in vivo activities.
A sensitive fluorescence method was used to measure the activity of pancreatic phospholipase A2 (PLA2) in vitro. PLA2 hydrolyzes the ester bond linking fatty acids to the sn-2 position in glycerophospholipids. Several types of PLA2 exist, including those isolated from venoms, synovial fluid, platelets, immunoactive cell types and the pancreas. The pancreatic PLA2 was the subject of this experiment because of its fundamental role in promoting lipid absorption in the intestine.
PLA2 activity was detected by the loss of pyrene excimer fluorescence that occurs when (1-pyrenyl)decanoic acid is hydrolysed from the sn-2 position of 1,2-bis-(1-pyrenedecanoyl)sn-glycero-3-phosphocholine ((P10)2 PC) by the action of PLA2. The use of similar pyrene-labeled PC substrates to detect PLA2 activity has been described previously (Radvanyi F., Jordan L., Russo-Marie F., Bon C., "A sensitive and continuous fluorometric assay for phospholipase A2 using pyrene-labeled phospholipids in the presence of serum albumin." Anal. Biochem., 177:103-109 (1989)). The full photophysical basis for the assay is described elsewhere (Birks J. B., "Photophysics of Aromatic Molecules," Wiley Interscience, New York, pp 301-371 (1970)).
In brief, pyrene excimers are formed by the complexation of one pyrene moiety in the ground-state with one pyrene moiety in the excited state to form an excited-state dimer (excimer) which fluoresces at longer wavelengths (475 nm emission maximum) than the wavelength range in which excited-state pyrene monomers fluoresce (370-400 nm). Excimer formation is dependent on the concentration of pyrene moieties. (P10)2 PC emits excimer fluorescence almost exclusively due to the fixed juxtaposition of the pyrene chromophores. The substrate concentration is sufficiently dilute so that excimer formation between the products of PLA2 action, namely lysoPY10PC and the (1-pyrenyl)decanoic acid, is insignificant.
In general, this assay scheme should have been applicable to the study of any type of PLA2. However, since pancreatic PLA2 is unique from the other PLA2 's in that it operates almost exclusively against micellized PC, the PC substrate in this assay was micellized with 1 mM deoxycholic acid. The PC component of the micelles consisted of 5 μM (P10)2 PC substrate diluted with a 99-fold excess (495 μM) of 1-oleyl-2-palmityl phosphatidylcholine (OPPC). The OPPC was inert to PLA2 hydrolysis because it contained ether-linked fatty alkyl chains in place of the ester-linked fatty acyl chains of normal PC. OPPC was included to 1) dilute the micellar (P10)2 PC concentration thereby minimizing intermolecular excimer formation, and 2) preserve the integrity of the micelles against the action of PLA2 since nonspecific micelle disruption could lead to nonlinear kinetics and fluorescence changes independent of lipolysis.
Phospholipase A2 (porcine pancreas), bovine serum albumin (BSA) (fraction V, essentially fatty acid-free) and sodium deoxycholate were obtained from Sigma Chemical Company, (St. Louis, Mo.). 1-Oleyl-2-palmityl-DL-phosphatidylcholine (OPPC) was ordered from Serdary Research Laboratories, Inc. (London, Ont., Canada). 1,2-Bis-(1-pyrenedecanoyl)-sn-glycero-3-phosphatidylcholine ((P10)2 PC) was obtained from Molecular Probes, Inc. (Eugene, Oreg.).
HEPES buffer (SHE) contained 150 mM NaCl, 20 mM HEPES (N-[2-hydroxyethyl]piperazine-N'-[2-ethanesulfonic acid]) and 1 mM EDTA (ethylenediamine tetraacetic acid) at pH 8.0.
1 mM (P10)2 PC in chloroform was prepared by adding 1 mL chloroform to a vial containing 1 mg of (P10)2 PC, as shipped by Molecular Probes. The actual concentration was determined spectrophotometrically by diluting 10 μL of the chloroform solution in 2 mL of ethanol. The absorbance spectrum of the ethanol solution was measured between 380 nm to 280 nm (Beckman DU-64). […]

Caco-2 cells [2] = assay: Caco-2 phospholipase A2-dependent cholesterol absorption, time course; type: cell-based, human; settings: for suppression of cholesterol absorption by PC, effect of PLA2: porcine pancreatic PLA2, PC-containing micelles
Caco-2 cells [3] = assay: Caco-2 retinol absorption; type: cell-based, human; settings: 10 μM retinol; FIG. 6
Procedure: (§1) Caco-2 cells were used as a tissue culture model of the human intestinal epithelium to compare the effects of phosphatidylcholine and lysophosphatidylcholine on lipid absorption and the subsequent re-esterification and secretion of micelle-derived lipids.
The micelle preparations used in the experiments described for FIG. 4 also contained 10 μM retinol. Retinol was included to determine whether the influence of micellar phospholipid composition on cholesterol absorption extended to other fatty alcohols. Like cholesterol, retinol is a fatty alcohol that is absorbed from the diet by the intestinal epithelium and passed into the circulation by an analogous transport process involving fatty acylation and assembly of the resultant retinyl esters into chylomicrons (Blomhoff R., Green M. H., Berg T., Norum K. R., "Transport and storage of vitamin A." Science, 250:399-404 (1990)).

Caco-2 cells [4] = assay: Caco-2 lipase studies; type: cell-based, human
Procedure: as §1
This was tested with the Caco-2 cells. Taurocholic acid micelles containing phosphatidylcholine, triolein, cholesteryl oleate and cholesterol were placed in the medium covering the apical surface of Caco-2 cell monolayers. Depending on the neutral lipid lipase being studied, either the triolein or cholesteryl oleate was tritium-labeled. The time course of radiolabeled lipid uptake and metabolism was studied in the absence or presence of the neutral lipid lipases, with or without PLA2. The results are in agreement with those presented by Borgstrom and coworkers. […] The results for micellar tri[^3 H]olein uptake indicated a similar but less severe dependence of triglyceride lipase activity on PLA2.

serum cholesterol = settings: neomycin 1.5-2 g/day; β-sitosterol 3-50 g/day; cited from earlier work
cholesterol absorption = assay: Cholesterol-fed hamster model, plasma and liver cholesterol / cholesterol absorption; type: in vivo; settings: FIG. 13
Excerpt: Neomycin and β-sitosterol (Cytellin) have been used as cholesterol absorption inhibitors to treat hypercholesterolemic patients (Kesaniemi, et al., Serum cholesterol lowering by inhibition of cholesterol absorption, Atherosclerosis, VIII:791-794 (1989)). The mechanisms by which these agents inhibit intestinal cholesterol absorption are unknown. Relatively large doses must be administered (1.5-2 g/day neomycin, 3-50 g/day β-sitosterol) to achieve up to 25% reductions in serum cholesterol levels. The advantages of PLA2 inhibitors over these agents is that the mechanism of cholesterol absorption inhibition is known and sufficiently potent PLA2 inhibitors could be administered in much smaller doses (potentially fewer side effects and better patient compliance) to achieve greater reductions in serum cholesterol levels. For example, in a cholesterol-fed hamster model, administration of 100 mg/kg of the phospholipase A2 inhibitor methyl-[2-(hexadecyloxy)phenyl]methyl ester phosphonic acid (Compound D in FIG. 13) produced reductions in plasma and liver cholesterol levels nearly equivalent to those obtained with a ten-fold higher dose (i.e., 1000 mg/kg) of β-sitosterol. Pancreatic PLA2 inhibitors represent a significant advancement over current agents, the use of which has already proven cholesterol absorption inhibitors to be a beneficial and effective therapy for hypercholesterolemia.

In the case of CCCCCCCCCCCn1nnn(Cc2ccccc2)c1=N [Compound B, 1,4-dihydro-1-(phenylmethyl)-4-undecyl-5H-tetrazol-5-imine], the “% Change in plasma lipids vs. Control: HDL Chol.” value (plasma lipids) was 9%, the “% Change in plasma lipids vs. Control: Total Chol.” value (plasma lipids) was -32% and the “% Change in plasma lipids vs. Control: non-HDL Chol.” value (plasma lipids) was -44%. The “lipid absorption in rats” value [1] was “reduced” and the pIC50 (porcine pancreatic PLA2) was 5.40.

In the case of “PLA2: porcine pancreatic phospholipase A2”, the “[3H]oleate-labeled PC synthesis relative to phospholipid-free micelles” value (Caco-2 cells [2]; 6 hours, micelles with lyso-PC, or PC with PLA2) was “slight decrease”, the “cell [14C]cholesteryl ester relative to incubations without micellar phospholipid” value (Caco-2 cells [2]; 12 hours, PC in the presence of PLA2) was 60% and the “cell-associated free [14C]cholesterol relative to level in the absence of PC” value (Caco-2 cells [2]; PLA2 added to PC-containing micelles) was 76%. For the same compound, the “suppression of cholesterol absorption by PC, effect of PLA2” value (Caco-2 cells [2]) was “partially reversed the inhibitory effects of micellar PC”, the “suppression of cholesterol absorption by PC, effect of PLA2” value (Caco-2 cells [2]; listed as pancreatic phospholipase A2) was “reverses the suppression of cholesterol absorption and metabolism” and the “retinol uptake and esterification” value (Caco-2 cells [3]) was “not affected”. The “cellular absorption of fatty acids” value (Caco-2 cells [4]; FIGS. 7 and 8) was “dramatic increase”, the “cellular accumulation of tritiated lipid from tri[3H]olein” value (Caco-2 cells [4]; triglyceride lipase with or without PLA2, FIG. 8) was “the greatest cellular accumulation of tritiated lipid occurred in the incubation containing both lipases together” and the “entry of micellar [3H]cholesteryl oleate label into cells” value (Caco-2 cells [4]; with or without carboxyl ester lipase and PLA2, FIG. 7) was “did not enter the cells unless both carboxyl ester lipase and PLA2 were included in the incubation”.

In the case of CC[C@H](CC[C@@H](C)[C@H]1CC[C@H]2[C@@H]3CC=C4C[C@@H](O)CC[C@]4(C)[C@H]3CC[C@]12C)C(C)C [β-sitosterol], the “reductions in serum cholesterol levels” value (serum cholesterol) is given as “up to 25%” and the “cholesterol absorption in hamsters” value (cholesterol absorption) is given as “reduced”.
